Experimental data as given in ChEMBL document CHEMBL1129814, “Synthesis of thiophenes and thieno[3,2-c]pyran-4-ones as antileishmanial and antifungal agents” (1997).
Converted amounts (≈) assume the structure as drawn.

How the values were obtained:
Leishmania donovani = assay: An vitro anti-leishmanial activity against Leishmania donovani promastigotes (25 uM); type: functional
Trichophyton benhamiae = assay: In vitro for antifungal activity against Trichophyton mentagrophytes (A-280); type: functional, Arthroderma benhamiae
Aspergillus fumigatus = assay: Antifungal activity against Aspergillus fumigatus (AF-27); type: functional
Candida albicans = assay: Antifungal activity against Candida albicans (SKF); type: functional
Sporothrix schenckii = assay: In vitro for antifungal activity against Sporothrix schenck ii (SS-1); type: functional
Cryptococcus neoformans = assay: Antifungal activity against Cryptococcus neoformans (CN-17); type: functional

Row | MIC (Trichophyton benhamiae) | MIC (Aspergillus fumigatus) | MIC (Candida albicans) | MIC (Sporothrix schenckii) | MIC (Cryptococcus neoformans) | Structure (SMILES) | Growth inhibition (Leishmania donovani)
1 | > 100 µg/mL | > 100 µg/mL | > 100 µg/mL | > 100 µg/mL | > 100 µg/mL | CSc1cc(-c2ccc(Cl)cc2)c(C(=O)O)s1 | 30%
2 | > 100 µg/mL | > 100 µg/mL | > 100 µg/mL | > 100 µg/mL | > 100 µg/mL | CCOC(=O)c1sc(SC)cc1-c1ccc(C)cc1 | 100%
3 | > 100 µg/mL | > 100 µg/mL | > 100 µg/mL | > 100 µg/mL | > 100 µg/mL | CCOC(=O)c1sc(SC)cc1-c1ccccc1 | 30%
4 | > 100 µg/mL | > 100 µg/mL | > 100 µg/mL | > 100 µg/mL | > 100 µg/mL | CSc1cc(-c2cccnc2)c(C(=O)O)s1 | 25%
5 | > 100 µg/mL | > 100 µg/mL | > 100 µg/mL | > 100 µg/mL | > 100 µg/mL | CCOC(=O)c1sc(SC)cc1-c1ccc(Br)cc1 | 20%
6 | 25 µg/mL (≈ 89.5 µM) | 50 µg/mL (≈ 179 µM) | 25 µg/mL (≈ 89.5 µM) | 25 µg/mL (≈ 89.5 µM) | 50 µg/mL (≈ 179 µM) | CCOC(=O)c1sc(SC)cc1-c1cccnc1 | 25%
7 | > 100 µg/mL | > 100 µg/mL | > 100 µg/mL | > 100 µg/mL | > 100 µg/mL | CCOC(=O)c1sc(SC)cc1-c1ccc(F)cc1 | 95%
8 | 50 µg/mL (≈ 152 µM) | > 100 µg/mL | > 100 µg/mL | > 100 µg/mL | > 100 µg/mL | CSc1cc(-c2ccc(Br)cc2)c(C(=O)O)s1 | 100%
9 | > 100 µg/mL | > 100 µg/mL | > 100 µg/mL | > 100 µg/mL | > 100 µg/mL | CCOC(=O)c1sc(SC)cc1-c1ccc(Cl)cc1 | 55%
10 | 50 µg/mL (≈ 186 µM) | > 100 µg/mL | > 100 µg/mL | > 100 µg/mL | > 100 µg/mL | CSc1cc(-c2ccc(F)cc2)c(C(=O)O)s1 | 40%
11 | > 100 µg/mL | > 100 µg/mL | > 100 µg/mL | > 100 µg/mL | > 100 µg/mL | CSc1cc(-c2ccc(C)cc2)c(C(=O)O)s1 | 10%

The next lines start with the molecule.

Row | Structure (SMILES) | MIC (Trichophyton benhamiae) | MIC (Aspergillus fumigatus) | MIC (Candida albicans) | MIC (Sporothrix schenckii) | MIC (Cryptococcus neoformans) | Growth inhibition (Leishmania donovani)
12 | N=C(N)c1ccc(OCCCCCOc2ccc(C(=N)N)cc2)cc1 [PENTAMIDINE] |  |  |  |  |  | 100%
13 | CCOC(=O)c1sc2cc(-c3ccc([N+](=O)[O-])cc3)oc(=O)c2c1N | > 100 µg/mL | > 100 µg/mL | > 100 µg/mL | > 100 µg/mL | > 100 µg/mL | 20%
14 | CCOC(=O)c1sc2cc(-c3cc(F)c(Cl)cc3Cl)oc(=O)c2c1N | > 100 µg/mL | > 100 µg/mL | > 100 µg/mL | > 100 µg/mL | > 100 µg/mL | 70%
15 | CC(=O)N1CCN(c2ccc(OC[C@H]3CO[C@](Cn4ccnc4)(c4ccc(Cl)cc4Cl)O3)cc2)CC1 [KETOCONAZOLE] | 25 µg/mL (≈ 47 µM) | 0.7 µg/mL (≈ 1.32 µM) | 0.1 µg/mL (≈ 0.188 µM) | 0.1 µg/mL (≈ 0.188 µM) | 0.3 µg/mL (≈ 0.565 µM) | 
16 | CCOC(=O)c1sc(SC)c(C(=O)OCC)c1O | > 100 µg/mL | > 100 µg/mL | > 100 µg/mL | > 100 µg/mL | > 100 µg/mL | 63%
17 | CCOC(=O)c1sc2cc(-c3cccc([N+](=O)[O-])c3)oc(=O)c2c1N | > 100 µg/mL | > 100 µg/mL | > 100 µg/mL | > 100 µg/mL | > 100 µg/mL | 28%
18 | CCOC(=O)c1sc2cc(-c3ccc(Cl)cc3)oc(=O)c2c1N | > 100 µg/mL | > 100 µg/mL | > 100 µg/mL | > 100 µg/mL | > 100 µg/mL | 24%
19 | CCOC(=O)c1sc(SC)c(C#N)c1O | 50 µg/mL (≈ 206 µM) | > 100 µg/mL | > 100 µg/mL | > 100 µg/mL | > 100 µg/mL | 60%
20 | CCOC(=O)c1sc(SC)c(C(=O)OC)c1O | 6.25 µg/mL (≈ 22.6 µM) | 25 µg/mL (≈ 90.5 µM) | 50 µg/mL (≈ 181 µM) | 12.5 µg/mL (≈ 45.2 µM) | 12.5 µg/mL (≈ 45.2 µM) | 95%
21 | CCOC(=O)c1sc2cc(-c3ccc(OC)cc3)oc(=O)c2c1N | > 100 µg/mL | > 100 µg/mL | > 100 µg/mL | > 100 µg/mL | > 100 µg/mL | 10%
22 | CCOC(=O)c1sc(SC)c(C#N)c1N | > 100 µg/mL | > 100 µg/mL | > 100 µg/mL | > 100 µg/mL | > 100 µg/mL | 25%
23 | CCOC(=O)c1sc2cc(-c3cccnc3)oc(=O)c2c1N | > 100 µg/mL | > 100 µg/mL | > 100 µg/mL | > 100 µg/mL | > 100 µg/mL | 15%
24 | CCOC(=O)c1sc2cc(-c3ccc(Br)cc3)oc(=O)c2c1N | > 100 µg/mL | > 100 µg/mL | > 100 µg/mL | > 100 µg/mL | > 100 µg/mL | 8%
25 | CCOC(=O)c1sc2cc(-c3ccc(F)cc3)oc(=O)c2c1N | > 100 µg/mL | > 100 µg/mL | > 100 µg/mL | > 100 µg/mL | > 100 µg/mL | 30%
